Assay [1] has as its target T1, S1PL2021 (Burkholderia pseudomallei, UniProt Q63IP8).
T1 construct: gene BPSS2021

Assay [2] concerns the target T1, S1PL2021. The source holds these as a separate data set.

T1 sequence (Q63IP8 21-493 limits assumed): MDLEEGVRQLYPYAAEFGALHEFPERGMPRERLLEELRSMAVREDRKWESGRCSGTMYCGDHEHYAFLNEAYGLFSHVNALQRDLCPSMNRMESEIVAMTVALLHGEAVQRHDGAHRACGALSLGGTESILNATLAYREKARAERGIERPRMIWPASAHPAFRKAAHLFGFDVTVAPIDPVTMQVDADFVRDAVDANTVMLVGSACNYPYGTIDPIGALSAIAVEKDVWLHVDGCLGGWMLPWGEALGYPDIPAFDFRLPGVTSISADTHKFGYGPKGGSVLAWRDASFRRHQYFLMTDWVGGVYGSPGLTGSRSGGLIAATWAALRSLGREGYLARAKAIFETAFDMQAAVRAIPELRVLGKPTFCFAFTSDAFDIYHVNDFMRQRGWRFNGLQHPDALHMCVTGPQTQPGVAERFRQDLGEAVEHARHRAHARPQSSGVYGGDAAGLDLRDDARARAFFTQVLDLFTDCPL

Regarding `Cc1ncc(COP(=O)(O)O)c(C=O)c1O` [PLP], on S1PL2021 [1], the “X-ray crystal structure, 2.1 Å” value is on record as “dimer of S1PL with the PLP cofactor present as an internal aldimine with residue K271”.

Consider `CCCCCCCCCCCCC/C=C/[C@@H](O)[C@@H](N)CO` [D-erythro sphingosine], for which, on S1PL2021 [2], the “UV-vis spectroscopy of PLP” value is “S1PL2021 could also bind the nonphosphorylated substrate, D-erythro sphingosine”.

The values above are taken from PMC5234717 (Journal of Lipid Research, 2016).
